Here are results for 1 molecule from US10744214B2, “Method of diagnosing and/or monitoring therapy of atherosclerosis” (STC.UNM, priority 2015, dated 2020).

“Also recorded” adds a separate entry of the source.

The target of the assay is T1, LFA-1 (Mus musculus, UniProt P24063).
T1 construct: presence of inflammatory LFA-1 in immune and cardiovascular tissues; from tissue; host or cells: living or euthanized male ApoE-/- C57BL/6 mice: heart, aortic arch, descending aorta, carotids, thymus
The assay can be described thus: 3 hr [111In] In-DANBIRT SPECT/CT imaging of ApoE-/- mice. The format is in vivo. The note with it: HFD fed mice, 3 hr post injection, baseline, 4th and 8th week, normalized to muscle. As for the experimental part: Methods: 6 week ApoE […] mice were fed either normal or high fat chow (n=8 per group) for 8 weeks to induce vascular atherosclerotic lesions. SPECT/CT imaging was performed 3-hrs post injection of ˜700 uCi of ^111In-DANBIRT at baseline, 4 weeks and 8 weeks. Whole body Autoradiography was performed 24-hrs post injection after 8-week time point. Image processing and analysis was performed by region of interest (ROI) determination in relationship to voxel and volume, uptake quantification was normalized to muscle uptake. Blood partition assays were conducted to ascertain specific binding components. […]
Animals were imaged at […] following 700 μCi via tail vein injection of [^111In] […] Regions of Interests (ROI) were determined and drawn using the best quality image phantom from reconstructed CT (Table 3) to determine muscle, adipose, heart, aortic arch and descending aorta organs using VivoQuant 2.00 (inviCRO, Boston, Mass.). […] Concentration and sum per volume normalized to muscle was determined to identify accurate measurements and eliminate ROI signal interference from adjacent tissues. […]

T1 sequence (P24063 24-1162): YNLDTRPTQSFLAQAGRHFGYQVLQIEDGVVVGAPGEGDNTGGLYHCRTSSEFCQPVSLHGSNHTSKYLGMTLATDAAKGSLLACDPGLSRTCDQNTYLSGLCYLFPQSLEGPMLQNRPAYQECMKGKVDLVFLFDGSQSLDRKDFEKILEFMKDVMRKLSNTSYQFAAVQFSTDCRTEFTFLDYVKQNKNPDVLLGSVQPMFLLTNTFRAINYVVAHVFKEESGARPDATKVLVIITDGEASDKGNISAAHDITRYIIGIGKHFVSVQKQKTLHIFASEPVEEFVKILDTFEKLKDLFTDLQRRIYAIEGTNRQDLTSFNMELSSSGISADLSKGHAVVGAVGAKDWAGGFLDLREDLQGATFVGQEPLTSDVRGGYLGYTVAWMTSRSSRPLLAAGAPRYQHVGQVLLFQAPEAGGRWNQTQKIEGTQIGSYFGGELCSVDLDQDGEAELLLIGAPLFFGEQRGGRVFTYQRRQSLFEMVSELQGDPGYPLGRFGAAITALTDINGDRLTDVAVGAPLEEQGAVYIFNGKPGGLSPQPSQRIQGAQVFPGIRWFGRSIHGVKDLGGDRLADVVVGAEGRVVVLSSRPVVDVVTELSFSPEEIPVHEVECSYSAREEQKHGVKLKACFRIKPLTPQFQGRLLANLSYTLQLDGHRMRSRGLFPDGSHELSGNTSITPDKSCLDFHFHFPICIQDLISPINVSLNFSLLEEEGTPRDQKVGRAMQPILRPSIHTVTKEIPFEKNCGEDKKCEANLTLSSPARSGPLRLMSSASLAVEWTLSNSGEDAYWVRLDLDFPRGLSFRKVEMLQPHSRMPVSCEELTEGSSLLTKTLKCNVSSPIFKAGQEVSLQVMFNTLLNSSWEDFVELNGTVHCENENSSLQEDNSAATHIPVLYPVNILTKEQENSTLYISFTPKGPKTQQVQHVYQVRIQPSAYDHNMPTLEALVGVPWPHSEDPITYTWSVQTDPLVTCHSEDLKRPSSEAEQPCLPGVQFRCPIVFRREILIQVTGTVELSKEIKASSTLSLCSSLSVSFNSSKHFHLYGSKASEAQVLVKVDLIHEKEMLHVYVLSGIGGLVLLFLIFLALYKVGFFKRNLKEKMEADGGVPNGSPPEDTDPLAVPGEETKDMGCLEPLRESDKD
T1 sequence (P11835 24-771 partner): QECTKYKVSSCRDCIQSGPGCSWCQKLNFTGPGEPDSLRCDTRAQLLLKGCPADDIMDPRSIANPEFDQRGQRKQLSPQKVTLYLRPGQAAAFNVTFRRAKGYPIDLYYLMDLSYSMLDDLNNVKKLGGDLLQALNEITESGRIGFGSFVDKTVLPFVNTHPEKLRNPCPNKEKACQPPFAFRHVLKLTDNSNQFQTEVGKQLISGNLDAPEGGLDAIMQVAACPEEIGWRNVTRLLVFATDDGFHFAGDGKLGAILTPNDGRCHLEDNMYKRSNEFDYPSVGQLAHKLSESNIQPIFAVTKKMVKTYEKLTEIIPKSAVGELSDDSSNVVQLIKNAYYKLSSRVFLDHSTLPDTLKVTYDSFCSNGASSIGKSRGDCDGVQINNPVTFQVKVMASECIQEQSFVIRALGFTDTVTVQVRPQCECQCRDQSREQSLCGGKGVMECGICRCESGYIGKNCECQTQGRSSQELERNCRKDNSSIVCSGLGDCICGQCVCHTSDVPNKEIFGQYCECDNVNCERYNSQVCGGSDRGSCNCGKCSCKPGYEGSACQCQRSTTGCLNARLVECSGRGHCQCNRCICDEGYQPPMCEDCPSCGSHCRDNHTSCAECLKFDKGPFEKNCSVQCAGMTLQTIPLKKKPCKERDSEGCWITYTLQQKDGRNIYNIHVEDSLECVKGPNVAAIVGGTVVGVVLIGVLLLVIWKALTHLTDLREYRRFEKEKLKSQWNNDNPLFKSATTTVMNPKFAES

Regarding `C[C@]1(Cc2ccc(Br)cc2)C(=O)N(c2cc(Cl)cc(Cl)c2)C(=O)N1CCCCNC(=O)CN1CCN2CCN3CCN(CC1)CC(=O)[O][111In]([O]C(=O)C2)[O]C(=O)C3` [[^111In] In-DANBIRT], the “uptake in heart, aortic arch and descending aorta ROI (SPECT/CT)” value was “longitudinal increased uptake; also recorded: Increased longitudinal uptake”. In addition, the “uptake in heart, aortic arch and descending aorta ROI (SPECT/CT)” value (listed as 111In-DANBIRT) is “longitudinal increase in uptake”.
